pIC50: −log10 of the molar value.
target: T1, human DP1 receptor (Homo sapiens, UniProt Q13258); assay: DP1 binding assay ([3H]BWA868C radioligand); details: human platelet membranes, 2 nM [3H]BWA868C; read-out: hDP1
T1 construct: tissue Biological Specialty Corporation; host or cells: human platelets, membrane preparation
T1 sequence (Q13258 1-359): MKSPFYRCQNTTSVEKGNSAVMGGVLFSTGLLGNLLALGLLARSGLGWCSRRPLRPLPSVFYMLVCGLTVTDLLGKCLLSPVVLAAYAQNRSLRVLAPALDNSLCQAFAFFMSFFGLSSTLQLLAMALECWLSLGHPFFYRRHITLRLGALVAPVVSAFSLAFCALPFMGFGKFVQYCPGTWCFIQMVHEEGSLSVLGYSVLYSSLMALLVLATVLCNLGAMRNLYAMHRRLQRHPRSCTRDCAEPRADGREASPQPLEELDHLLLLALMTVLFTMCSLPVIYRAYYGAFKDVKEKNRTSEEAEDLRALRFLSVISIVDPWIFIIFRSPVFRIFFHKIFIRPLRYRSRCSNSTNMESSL
Description: The ability of a compound to bind to the human DP1 receptor was evaluated via a radioligand membrane binding assay using the DP1 selective synthetic ligand [^3H]BWA868C. Packed human platelets (Biological Specialty Corporation), were resuspended in 6 volumes of Hepes/HBSS buffer (10 mM Hepes, 1 mM DTT in Hanks Balanced Salt Solution (HBSS), lysed and centrifuged at 75,000×g to pellet the membranes. Membranes were resuspended in Hepes/HBSS buffer to approximately 12 mg protein/ml. Membranes (20 μg protein/well) are incubated in 96-well plates with 2 nM [^3H]BWA868C and test compound in Assay Buffer (50 mM Hepes, 10 mM MnCl2, 1 mM EDTA, plus or minus 0.2% human serum albumin, pH 7.4) for 60 minutes at room temperature. The reactions are terminated by rapid filtration through Whatman GF/C glass fibre filter plates. The filter plates were pre-soaked in 0.33% polethylenimine for 30 minutes at room temperature then washed in Wash Buffer (50 mM Hepes, 0.5 M NaCl pH 7.4) prior to harvesting. After harvesting, the filter plates are washed 3 times with 1 ml cold Wash Buffer then dried. Scintillant is then added to the plates and the radioactivity retained on the filters is determined on a Packard TopCount (Perkin Elmer). Specific binding is determined as total radioactive binding minus non-specific binding in the presence of 10 μM BW A868C. IC50s were determined using GraphPad prism analysis of drug titration curves.

pIC50 | SMILES
> 6.52 | COc1ccc(CC(=O)O)cc1Oc1ccc(NC(=O)c2cccc(C(F)(F)F)c2)cc1CSCC(F)(F)F [Compound 68, {4-methoxy-3-[2-(2,2,2-trifluoro-ethylsulfanylmethyl)-4-(3-trifluoromethyl-benzoylamino)-phenoxy]-phenyl}-acetic acid]
> 6.52 | COc1ccc(CC(=O)O)cc1Oc1ccc(NC(=O)C(C)(C)C)cc1CS(=O)(=O)C(C)(C)C [Compound 74, {3-[4-(2,2-Dimethyl-propionylamino)-2-(2-methyl-propane-2-sulfonylmethyl)-phenoxy]-4-methoxy-phenyl}-acetic acid]
> 6.52 | COc1ccc(CC(=O)O)cc1Oc1ccc(NC(=O)c2cc(Cl)cc(Cl)c2)cc1CSC(C)(C)C [Compound 66, {3-[2-tert-Butylsulfanylmethyl-4-(3,5-dichloro-benzoylamino)-phenoxy]-4-methoxy-phenyl}-acetic acid]

target: T2, human DP2 receptor (Homo sapiens, UniProt Q9Y5Y4); assay: DP2/CRTH2 binding assay ([3H]PGD2 radioligand); details: membranes of HEK293 cells expressing recombinant human DP2, 1 nM [3H]PGD2; read-out: hDP2
T2 construct: expressed in transfected cells
T2 sequence (Q9Y5Y4 1-395): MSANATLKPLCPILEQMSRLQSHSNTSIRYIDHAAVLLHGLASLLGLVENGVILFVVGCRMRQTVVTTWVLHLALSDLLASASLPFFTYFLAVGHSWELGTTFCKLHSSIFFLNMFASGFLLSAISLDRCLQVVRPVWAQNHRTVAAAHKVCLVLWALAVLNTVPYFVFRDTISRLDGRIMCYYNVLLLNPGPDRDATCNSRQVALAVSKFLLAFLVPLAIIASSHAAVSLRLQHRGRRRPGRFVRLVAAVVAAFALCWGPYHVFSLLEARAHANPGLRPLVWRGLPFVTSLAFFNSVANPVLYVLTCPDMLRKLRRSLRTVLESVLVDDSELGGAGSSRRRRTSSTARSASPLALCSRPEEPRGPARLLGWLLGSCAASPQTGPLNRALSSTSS
Description: The ability of a compound to bind to the human DP2 receptor is assessed via a radioligand binding assay using [^3H]PGD2. HEK293 cells stably expressing recombinant human DP2 are resuspended in 10 mM Hepes, 7.4 containing 1 mM DTT, lysed and centrifuged at 75,000×g to pellet the membranes. The membranes are resuspended in 10 mM Hepes, 7.4 containing 1 mM DTT and 10% glycerol to approximately 5 mg protein/ml. Membranes (2-10 μg protein/well) are incubated in 96-well plates with 1 nM [^3H]PGD2 and test compound in Assay Buffer (50 mM Hepes, 10 mM MnCl2, 1 mM EDTA, plus or minus 0.2% human serum albumin, pH 7.4) for 60 minutes at room temperature. The reactions are terminated by rapid filtration through Whatman GF/C glass fibre filter plates. The filter plates were pre-soaked in 0.33% polythylenimine for 30 minutes at room temperature then washed in Wash Buffer (50 mM Hepes, 0.5 M NaCl pH 7.4) prior to harvesting. After harvesting, the filter plates are washed 3 times with 1 ml cold Wash Buffer then dried. Scintillant is then added to the plates and the radioactivity retained on the filters is determined on a Packard TopCount (Perkin Elmer). Specific binding is determined as total radioactive binding minus non-specific binding in the presence of 10 μM PGD2. IC50s were determined using GraphPad prism analysis of drug titration curves.

pIC50 | SMILES
> 6.52 | COc1ccc(CC(=O)O)cc1Oc1ccc(NC(=O)c2cccc(C(F)(F)F)c2)cc1CSCC(F)(F)F [Compound 68, {4-methoxy-3-[2-(2,2,2-trifluoro-ethylsulfanylmethyl)-4-(3-trifluoromethyl-benzoylamino)-phenoxy]-phenyl}-acetic acid]
> 6.52 | COc1ccc(CC(=O)O)cc1Oc1ccc(NC(=O)C(C)(C)C)cc1CS(=O)(=O)C(C)(C)C [Compound 74, {3-[4-(2,2-Dimethyl-propionylamino)-2-(2-methyl-propane-2-sulfonylmethyl)-phenoxy]-4-methoxy-phenyl}-acetic acid]
> 6.52 | COc1ccc(CC(=O)O)cc1Oc1ccc(NC(=O)c2cc(Cl)cc(Cl)c2)cc1CSC(C)(C)C [Compound 66, {3-[2-tert-Butylsulfanylmethyl-4-(3,5-dichloro-benzoylamino)-phenoxy]-4-methoxy-phenyl}-acetic acid]
> 6.52 | COc1ccc(NC(=O)c2ccc(Oc3cc(CC(=O)O)ccc3OC)c(CSC(C)(C)C)c2)cn1 [Compound 43, {3-[2-tert-butylsulfanylmethyl-4-(6-methoxy-pyridin-3-ylcarbamoyl)-phenoxy]-4-methoxy-phenyl}-acetic acid]
> 6.52 | CCNC(=O)c1ccc(Oc2cc(CC(=O)O)ccc2OC)c(CSC(C)C)c1 [Compound 25, [3-(4-Ethylcarbamoyl-2-isopropylsulfanylmethyl-phenoxy)-4-methoxy-phenyl]-acetic acid]
< 6.00 | COc1ccc(CC(=O)O)cc1Oc1ccc(C(=O)N2CCCCC2)cc1CSC(C)(C)C [Compound 42, {3-[2-tert-butylsulfanylmethyl-4-(piperidine-1-carbonyl)-phenoxy]-4-methoxy-phenyl}-acetic acid]
> 6.52 | COc1ccc(CC(=O)O)cc1Oc1ccc(C(=O)NCc2ccc(Cl)cc2)cc1CSC(C)C [Compound 26, {3-[4-(4-Chloro-benzylcarbamoyl)-2-isopropylsulfanylmethyl-phenoxy]-4-methoxy-phenyl}-acetic acid]
> 6.52 | COc1ccc(CC(=O)O)cc1Oc1ccc(NC(=O)C(C)(C)C)cc1C[S+]([O-])C(C)C (centres unmarked) [Compound 11, {3-[4-(2,2-Dimethyl-propionylamino)-2-(propane-2-sulfinylmethyl)-phenoxy]-4-methoxy-phenyl}-acetic acid]
> 6.52 | COc1ccc(CC(=O)O)cc1Oc1ccc(NC(=O)CC(C)(C)C)cc1CSC(C)(C)C [Compound 37, {3-[2-tert-Butylsulfanylmethyl-4-(3,3-dimethyl-butyrylamino)-phenoxy]-4-methoxy-phenyl}-acetic acid]
> 6.52 | COc1ccc(CC(=O)O)cc1Oc1ccc(N(C)C(=O)C(C)(C)C)cc1CSCC(F)(F)F [Compound 34, {3-[4-[(2,2-Dimethyl-propionyl)-methyl-amino]-2-(2,2,2-trifluoro-ethylsulfanylmethyl)-phenoxy]-4-methoxy-phenyl}-acetic acid]
> 6.52 | COc1ccc(CC(=O)O)cc1Oc1ccc(NC(=O)NCc2ccccc2)cc1CSC(C)(C)C [Compound 13, {3-[4-(3-benzyl-ureido)-2-tert-butylsulfanylmethyl-phenoxy]-4-methoxy-phenyl}-acetic acid]
> 6.52 | CC(C)(C)C(=O)Nc1ccc(Oc2cc(Cl)cc(CC(=O)O)c2)c(CS(=O)(=O)CC(F)(F)F)c1 [Compound 29, {3-Chloro-5-[4-(2,2-dimethyl-propionylamino)-2-(trifluoro-ethanesulfonylmethyl)-phenoxy]-phenyl}-acetic acid]
6.00 to 6.52 | COc1ccc(CC(=O)O)cc1Oc1ccc(C(=O)NCC(C)(C)C)cc1CSC(C)(C)C [Compound 46, {3-[2-tert-butylsulfanylmethyl-4-(2,2-dimethyl-propylcarbamoyl)-phenoxy]-4-methoxy-phenyl}-acetic acid]
> 6.52 | CC(C)(C)C(=O)Nc1ccc(Oc2cc(CC(=O)O)ccc2Cl)c(CSCC(F)(F)F)c1 [Compound 53, {4-Chloro-3-[4-(2,2-dimethyl-propionylamino)-2-(2,2,2-trifluoro-ethylsulfanylmethyl)-phenoxy]-phenyl}-acetic acid]
> 6.52 | CC(C)(C)C(=O)Nc1ccc(Oc2cc(Cl)cc(CC(=O)O)c2)c(CSCC(F)(F)F)c1 [Compound 28, {3-Chloro-5-[4-(2,2-dimethyl-propionylamino)-2-(2,2,2-trifluoro-ethylsulfanylmethyl)-phenoxy]-phenyl}-acetic acid]
> 6.52 | COc1ccc(CC(=O)O)cc1Oc1ccc(NC(=O)C(C)(C)C)cc1CS(=O)(=O)C(C)C [Compound 10, {3-[4-(2,2-Dimethyl-propionylamino)-2-(propane-2-sulfonylmethyl)-phenoxy]-4-methoxy-phenyl}-acetic acid]
> 6.52 | COc1ccc(CC(=O)O)cc1Oc1ccc(NC(=O)C(C)(C)C)cc1CSc1ccc(Cl)cc1 [Compound 5, {3-[2-(4-chloro-phenylsulfanylmethyl)-4-(2,2-dimethyl-propionylamino)-phenoxy]-4-methoxy-phenyl}-acetic acid]
> 6.52 | CC(C)(C)SCc1cc(NC(=O)C(C)(C)C)ccc1Oc1cc(Cl)cc(CC(=O)O)c1 [Compound 47, {3-[2-tert-Butylsulfanylmethyl-4-(2,2-dimethyl-propionylamino)-phenoxy]-5-chloro-phenyl}-acetic acid]
> 6.52 | COc1ccc(CC(=O)O)cc1Oc1ccc(NC(=O)C(C)(C)C)cc1CSC(C)C [Compound 9, {3-[4-(2,2-Dimethyl-propionylamino)-2-isopropylsulfanylmethyl-phenoxy]-4-methoxy-phenyl}-acetic acid]
> 6.52 | CC(C)SCc1cc(NC(=O)C(C)(C)C)ccc1Oc1cc(CC(=O)O)cc(C(F)(F)F)c1 [Compound 54, {3-[4-(2,2-Dimethyl-propionylamino)-2-isopropylsulfanylmethyl-phenoxy]-5-trifluoromethyl-phenyl}-acetic acid]
> 6.52 | COc1ccc(CC(=O)O)cc1Oc1ccc(NC(=O)C2CC2)cc1CSCC(F)(F)F [Compound 14, {3-[4-(Cyclopropanecarbonyl-amino)-2-(2,2,2-trifluoro-ethylsulfanylmethyl)-phenoxy]-4-methoxy-phenyl}-acetic acid]
> 6.52 | COc1ccc(CC(=O)O)cc1Oc1ccc(NC(=O)C2CC2)cc1CSC(C)(C)C [Compound 35, {3-[2-tert-butylsulfanylmethyl-4-(cyclopropanecarbonyl-amino)-phenoxy]-4-methoxy-phenyl}-acetic acid]
> 6.52 | COc1ccc(CC(=O)O)cc1Oc1ccc(NC(=O)c2ccc(Cl)cc2)cc1C[S+]([O-])C(C)C (centres unmarked) [Compound 21, {3-[4-(4-Chloro-benzoylamino)-2-(propane-2-sulfinylmethyl)-phenoxy]-4-methoxy-phenyl}-acetic acid]
